Experimental data taken from the NIST ThermoML archive (doi:10.1016/j.fluid.2011.06.011).

Experiment: refractive index (Na D-line) (dimensionless); xn = mol fraction of the nth substance listed
Conditions: 101 kPa, Liquid, Standard Abbe refractometry

C=CC(C)(O)CCC=C(C)C (stereo not drawn) [3,7-dimethyl-1,6-octadien-3-ol] + CCO
refractive index
Conditions | 283.15 K | 298.15 K | 313.15 K | 328.15 K
x1 = 0.0471 | – | – | – | 1.3611
x1 = 0.0493 | – | – | 1.3678 | –
x1 = 0.0506 | 1.38013 | 1.37416 | – | –
x1 = 0.1008 | 1.39241 | 1.38626 | 1.37996 | 1.37358
x1 = 0.1969 | 1.41091 | 1.40451 | 1.39788 | 1.39102
x1 = 0.2884 | 1.42392 | – | – | –
x1 = 0.2895 | – | 1.4175 | 1.41061 | 1.4036
x1 = 0.388 | 1.43469 | 1.42801 | – | –
x1 = 0.3957 | – | – | 1.42171 | 1.41452
x1 = 0.4803 | 1.44248 | – | – | –
x1 = 0.4834 | – | 1.4359 | 1.42883 | 1.42158
x1 = 0.56 | 1.44799 | – | – | –
x1 = 0.593 | – | 1.44306 | 1.43594 | 1.42859
x1 = 0.6838 | 1.45474 | 1.44779 | 1.44061 | 1.43327
x1 = 0.7832 | 1.45921 | – | – | –
x1 = 0.8438 | – | 1.45451 | 1.44732 | 1.43989
x1 = 0.8941 | 1.46319 | 1.45612 | 1.4489 | 1.4415
x1 = 0.9286 | 1.46443 | – | 1.45004 | 1.44266
x1 = 0.9337 | – | 1.45748 | – | –
x1 = 1 | 1.4666 | 1.45946 | 1.45215 | 1.44473
